Patent publication US20230270755A1, “COMBINATION OF MEDICATIONS IN A PARENTERAL DOSAGE FORM FOR LONG-TERM ANAESTHESIA” (PHARMAFINA ILAC SATIS VE PAZARLAMA ANONIM SIRKETI, priority 2020, published 2023)

Key:
[1] = Ropivacaine pharmacokinetics and duration of effect (literature review); assay type: in vivo; conditions: single dose; additional doses required for longer action
Protocol: Ropivacaine is preferably used as the hydrochloride salt and S-enantiomer thereof for acute pain management and surgical anesthesia. […] Therefore, ropivacaine loses its sensible effect within about 4 hours and additional doses are required for a longer action.

[2] = administered intravenously, cited from earlier work

In the case of CCCN1CCCC[C@H]1C(=O)Nc1c(C)cccc1C [Ropivacaine], the “time within which sensible effect is lost” value [1] is given as at most 4 h, the “mean half-life of the initial phase” value [2] is given as 14 min and the “mean absorption t1/2 of the slower phase” value ([2]; slower phase) is given as “approximately 4.2 hours”.
